Reference: patent US20260364030A1, “NOVEL SELECTIVE INHIBITORS OF LYSYL OXIDASES” (Syntara Limited, priority 2022, published 2026)
pIC50: −log10 of the molar value.

How the values were obtained:
LOXL2 = molecular target: T1, LOXL2 (Homo sapiens, UniProt Q9Y4K0); test: LOXL2 inhibition, Amplex Red oxidation assay; type: biochemical; details: 2 h incubation with enzyme at 37 °C; read-out: Human LOXL2 Activity IC50
T1 sequence (Q9Y4K0 26-774): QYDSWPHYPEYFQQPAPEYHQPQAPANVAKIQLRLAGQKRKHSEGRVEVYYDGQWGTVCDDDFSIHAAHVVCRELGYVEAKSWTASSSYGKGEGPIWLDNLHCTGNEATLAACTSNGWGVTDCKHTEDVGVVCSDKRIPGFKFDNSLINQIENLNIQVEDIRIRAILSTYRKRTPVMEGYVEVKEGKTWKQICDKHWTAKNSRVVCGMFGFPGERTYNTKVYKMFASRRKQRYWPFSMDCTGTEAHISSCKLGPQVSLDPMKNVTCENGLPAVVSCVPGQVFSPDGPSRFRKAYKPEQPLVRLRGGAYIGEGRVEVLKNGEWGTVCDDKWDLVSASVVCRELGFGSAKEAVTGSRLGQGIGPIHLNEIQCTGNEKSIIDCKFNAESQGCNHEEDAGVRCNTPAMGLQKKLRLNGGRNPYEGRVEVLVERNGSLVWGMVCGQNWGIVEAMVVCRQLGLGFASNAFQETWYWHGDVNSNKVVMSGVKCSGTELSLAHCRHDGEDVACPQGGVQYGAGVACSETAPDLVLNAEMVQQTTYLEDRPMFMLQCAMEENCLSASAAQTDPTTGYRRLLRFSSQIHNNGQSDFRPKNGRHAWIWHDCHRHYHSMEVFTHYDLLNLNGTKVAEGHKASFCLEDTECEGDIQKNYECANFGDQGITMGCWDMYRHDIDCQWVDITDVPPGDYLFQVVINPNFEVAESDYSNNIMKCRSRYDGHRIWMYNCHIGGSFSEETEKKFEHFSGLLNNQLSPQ
Method: (§1) LOX and LOXL protein family members can be acquired as recombinant active proteins from commercial sources, or extracted from animal tissues like bovine aorta, tendons, pig skin; or prepared from cell cultures. The inhibitory effects of the compounds of the present invention were tested against the given LOX or LOXL preparation using a method based on the detection of hydrogen peroxide with an Amplex Red oxidation assay [Zhou et al, 1997]. The assay was developed using either 384 or 96 well format. Briefly, in a standard black, clear bottom 384 well plate assay 25 µL of a dilution of any of the isoenzymes and orthologues in 1.2 M urea, 50 mM sodium borate buffer (pH 8.2) were added into each well in the presence of […] and 0.5 mM pargyline (to inhibit SSAO and MAO-B and MAO-A, respectively; not necessary if the enzyme is from a recombinant or purified form). […] of a reaction mixture containing twice the KM concentration of putrescine (Sigma Aldrich, e.g. 20 mM for LOX and LOXL1 or 10 mM for LOXL2 and 4 mM for LOXL3 and LOXL4), 120 µM Amplex Red (Thermo Fisher Scientific) and 1.5 U/mL horseradish peroxidase (Sigma Aldrich) prepared in 1.2 M urea, 50 mM sodium borate buffer (pH 8.2) were then added to the corresponding wells. The above volumes were doubled in the case of 96 wells plate. The fluorescence (RFU) was read every 2.5 min for 30 min at 37 °C, excitation 544 nm and emission 590 (Optima; BMG labtech). The slope/min of the kinetics for each well was calculated using MARS data analysis software (BMG labtech) and this value was used to deduce the IC50 value (Dotmatics). The ability of the inventive compounds to inhibit the amine oxidase activity of LOX and other family members is shown in Table 5.

Bovine LOX = molecular target: T2, Bovine LOX (Bos taurus, UniProt P33072); test: LOX inhibition, hydrogen peroxide Amplex Red oxidation assay; type: biochemical; details: 2 h incubation with enzyme at 37 °C
T2 sequence (P33072 170-418): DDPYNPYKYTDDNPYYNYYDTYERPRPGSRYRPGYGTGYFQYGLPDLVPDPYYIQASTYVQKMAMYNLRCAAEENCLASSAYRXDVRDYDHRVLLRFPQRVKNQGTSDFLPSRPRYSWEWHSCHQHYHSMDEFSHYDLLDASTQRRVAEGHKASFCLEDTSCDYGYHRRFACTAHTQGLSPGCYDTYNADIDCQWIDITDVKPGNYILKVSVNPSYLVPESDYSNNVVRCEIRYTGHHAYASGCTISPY
Method: as §1

| Compound | pIC50 (LOXL2) | pIC50 (Bovine LOX) |
| --- | --- | --- |
| NC/C(=C\F)CS(=O)(=O)c1ccc(C(=O)O)cc1 [Compound 31, (E)-4-((2-(aminomethyl)-3-fluoroallyl)sulfonyl)benzoic acid] | > 5.00 | > 5.00 |
| [2H]c1c([2H])c([2H])c(S(=O)(=O)C/C(=C/F)CN)c([2H])c1[2H] [Compound 30, (E)-3-fluoro-2-(((phenyl-d5)sulfonyl)methyl)prop-2-en-1-amine] | > 5.30 | > 5.30 |
| NC/C(=C\F)CS(=O)(=O)c1cccc(C(=O)O)c1 [Compound 26, (E)-3-((2-(aminomethyl)-3-fluoroallyl)sulfonyl)benzoic acid] | > 5.30 | > 5.00 |
| Cc1ccc(S(=O)(=O)C/C(=C/F)CN)cc1C [Compound 9, (E)-2-(((3,4-dimethylphenyl)sulfonyl)methyl)-3-fluoroprop-2-en-1-amine] | > 5.70 | > 5.70 |
| NC/C(=C\F)CS(=O)(=O)c1cccc2cccnc12 [Compound 7, (E)-3-fluoro-2-((quinolin-8-ylsulfonyl)methyl)prop-2-en-1-amine] | > 5.70 | > 5.00 |
| NC/C(=C\F)CS(=O)(=O)c1cccc(Br)c1 [Compound 15, (E)-2-(((3-bromophenyl)sulfonyl)methyl)-3-fluoroprop-2-en-1-amine] | > 5.70 | > 5.70 |
| N#Cc1ccccc1S(=O)(=O)C/C(=C/F)CN [Compound 12, (E)-2-((2-(aminomethyl)-3-fluoroallyl)sulfonyl)benzonitrile] | > 5.30 | > 5.30 |
| CS(=O)(=O)c1ccc(S(=O)(=O)C/C(=C/F)CN)cc1 [Compound 21, (E)-3-fluoro-2-(((4-(methylsulfonyl)phenyl)sulfonyl)methyl)prop-2-en-1-amine] | > 5.70 | > 5.70 |
| NC/C(=C\F)CS(=O)(=O)c1cccc(S(=O)(=O)c2ccccc2)c1 [Compound 14, (E)-3-fluoro-2-(((3-(phenylsulfonyl)phenyl)sulfonyl)methyl)prop-2-en-1-amine] | > 5.70 | > 5.70 |
| NC/C(=C\F)CS(=O)(=O)c1cccc(C(F)(F)F)c1 [Compound 10, (E)-3-fluoro-2-(((3-(trifluoromethyl)phenyl)sulfonyl)methyl)prop-2-en-1-amine] | > 5.70 | > 5.70 |
| NC/C(=C\F)CS(=O)(=O)c1cccc(-c2nccs2)c1 [Compound 16, (E)-3-fluoro-2-(((3-(thiazol-2-yl)phenyl)sulfonyl)methyl)prop-2-en-1-amine] | > 5.70 | > 5.70 |
| Cc1ncc(-c2cccc(S(=O)(=O)C/C(=C/F)CN)c2)s1 [Compound 17, (E)-3-fluoro-2-(((3-(2-methylthiazol-5-yl)phenyl)sulfonyl)methyl)prop-2-en-1-amine] | > 5.70 | > 5.70 |
| Cc1ccccc1S(=O)(=O)C/C(=C/F)CN [Compound 3, (E)-3-fluoro-2-((o-tolylsulfonyl)methyl)prop-2-en-1-amine] | > 5.70 | > 5.30 |
| NC/C(=C\F)CS(=O)(=O)c1cccc(-n2nccn2)c1 [Compound 34, (E)-2-(((3-(2H-1,2,3-triazol-2-yl)phenyl)sulfonyl)methyl)-3-fluoroprop-2-en-1-amine] |  | > 5.30 |
| Cc1ccn(-c2cccc(S(=O)(=O)C/C(=C/F)CN)c2)n1 [Compound 18, (E)-3-fluoro-2-(((3-(3-methyl-1H-pyrazol-1-yl)phenyl)sulfonyl)methyl)prop-2-en-1-amine] | > 5.70 | > 5.70 |
| N#Cc1ccc(S(=O)(=O)C/C(=C/F)CN)cc1 [Compound 28, (E)-4-((2-(aminomethyl)-3-fluoroallyl)sulfonyl)benzonitrile] | > 5.70 | > 5.30 |

| Compound | pIC50 (LOXL2) | pIC50 (Bovine LOX) |
| --- | --- | --- |
| NC/C(=C\F)CS(=O)(=O)c1cccc(CN2CCCCCC2=O)c1 [Compound 36, (E)-1-(3-((2-(aminomethyl)-3-fluoroallyl)sulfonyl)benzyl)azepan-2-one] | > 5.30 | > 5.00 |
| NC/C(=C\F)CS(=O)(=O)c1ccc2c(c1)OCCO2 [Compound 25, (E)-2-(((2,3-dihydrobenzo[b][1,4]dioxin-6-yl)sulfonyl)methyl)-3-fluoroprop-2-en-1-amine] | > 5.70 | > 5.70 |
| NC/C(=C\F)CS(=O)(=O)c1cccc(C(N)=O)c1 [Compound 27, (E)-3-((2-(aminomethyl)-3-fluoroallyl)sulfonyl)benzamide] | > 5.70 | > 5.70 |
| COc1cccc(S(=O)(=O)C/C(=C/F)CN)c1 [Compound 24, (E)-3-fluoro-2-(((3-methoxyphenyl)sulfonyl)methyl)prop-2-en-1-amine] | > 5.70 | > 5.70 |
| NC/C(=C\F)CS(=O)(=O)c1cccc(Cl)c1 [Compound 19, (E)-2-(((3-chlorophenyl)sulfonyl)methyl)-3-fluoroprop-2-en-1-amine] | > 5.70 | > 5.70 |
| N#Cc1cccc(S(=O)(=O)C/C(=C/F)CN)c1 [Compound 2, (E)-3-((2-(aminomethyl)-3-fluoroallyl)sulfonyl)benzonitrile] | > 5.70 | > 5.70 |
| Cc1ccc(S(=O)(=O)C/C(=C/F)CN)cc1Cl [Compound 8, (E)-2-(((3-chloro-4-methylphenyl)sulfonyl)methyl)-3-fluoroprop-2-en-1-amine] | > 5.70 | > 5.70 |
| NC/C(=C\F)CS(=O)(=O)c1cccc(F)c1 [Compound 5, (E)-3-fluoro-2-(((3-fluorophenyl)sulfonyl)methyl)prop-2-en-1-amine] | > 5.70 | > 5.70 |
| Cc1cccc(S(=O)(=O)C/C(=C/F)CN)c1 [Compound 20, (E)-3-fluoro-2-((m-tolylsulfonyl)methyl)prop-2-en-1-amine] | > 5.70 | > 5.70 |
| NC/C(=C/F)CS(=O)(=O)c1ccccc1 [Compound 37, (Z)-3-fluoro-2-((phenylsulfonyl)methyl)prop-2-en-1-amine] | > 5.70 | > 5.70 |
| CS(=O)(=O)c1cccc(Oc2ccccc2S(=O)(=O)C/C(=C/F)CN)c1 [Compound 35, (E)-3-fluoro-2-(((2-(3-(methylsulfonyl)phenoxy)phenyl)sulfonyl)methyl)prop-2-en-1-amine] | > 5.70 | > 5.30 |
| Cc1ccc(S(=O)(=O)C/C(=C/F)CN)cc1C#N [Compound 29, (E)-5-((2-(aminomethyl)-3-fluoroallyl)sulfonyl)-2-methylbenzonitrile] | > 5.70 | > 5.70 |
| NC/C(=C\F)CS(=O)(=O)c1cccc2c1OCCO2 [Compound 33, (E)-2-(((2,3-dihydrobenzo[b][1,4]dioxin-5-yl)sulfonyl)methyl)-3-fluoroprop-2-en-1-amine] | > 5.00 | > 5.00 |
| CC(C)c1cccc(S(=O)(=O)C/C(=C/F)CN)c1 [Compound 11, (E)-3-fluoro-2-(((3-isopropylphenyl)sulfonyl)methyl)prop-2-en-1-amine] | > 5.70 | > 5.70 |
| NC/C(=C\F)CS(=O)(=O)c1cc(Cl)ccc1Cl [Compound 32, (E)-2-(((2,5-dichlorophenyl)sulfonyl)methyl)-3-fluoroprop-2-en-1-amine] | > 5.70 | > 5.70 |
| NC/C(=C\F)CS(=O)(=O)c1ccc2ccccc2c1 [Compound 22, (E)-3-fluoro-2-((naphthalen-2-ylsulfonyl)methyl)prop-2-en-1-amine] | > 5.70 | > 5.70 |
